Measured values as given in ChEMBL document CHEMBL1201862, “PubChem BioAssay data set” (2004).
The source made the active and inactive calls.

Columns and labels:
[1] = biological target: E3 ubiquitin-protein ligase Mdm2 (Homo sapiens, UniProt Q00987); experiment: enhancers of MDM2-luciferase reporter signal, concentration-effect titration, project on inhibitors of MDM2 ubiquitin ligase, cellular assay, luminescent readout, 384-well plate format (AID 1394); format: functional;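 also: MDM2 E3 inhibitors raise luminescence so EC50 is for signal enhancement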
[2] = biological target: Glyceraldehyde-3-phosphate dehydrogenase (Homo sapiens, UniProt P04406)
Bcl-2-related protein A1 [3] = biological target: T1, Bcl-2-related protein A1 (Mus musculus, UniProt Q07440); experiment: Bfl-1 inhibitors blocking BH3 peptide binding, confirmation, biochemical, TR-FRET, mouse Bfl-1 (AID 621);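 also: TR-FRET binding of GST-Bfl-1 to FITC-labelled Bid peptide via terbium antibody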
T1 sequence (Q07440 whole entry): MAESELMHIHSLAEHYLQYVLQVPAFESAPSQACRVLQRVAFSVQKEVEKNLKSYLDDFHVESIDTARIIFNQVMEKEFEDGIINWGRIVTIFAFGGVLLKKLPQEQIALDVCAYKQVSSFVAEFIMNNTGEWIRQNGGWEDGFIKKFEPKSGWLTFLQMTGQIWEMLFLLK

Bcl-2-related protein A1 [4] = biological target: T1, Bcl-2-related protein A1; experiment: Bfl-1 binding inhibitors, SAR follow-up, biochemical, fluorescence polarization (AID 1070)
[5] = P. falciparum 3D7-ScDHODH growth inhibitors, dose response, SYBR Green, dry powder samples (AID 1159570); format: functional, cell-based;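 also: parasite growth measured after 72 hours of compound exposure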
[6] = P. falciparum Dd2 growth inhibitors, dose response, SYBR Green, dry powder samples (AID 1159566); format: functional, cell-based;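 also: potency for growth inhibition with lower SYBR green DNA signal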
[7] = HepG2 cell cytotoxicity, dose response, cytotoxicity control, plate reader, dry powder samples (AID 1159569); format: functional, cell-based;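 also: inhibitor potency with signal falling toward the positive control level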
[8] = P. falciparum Dd2 growth inhibitors, dose response, SYBR Green, cherry-picked samples (AID 1159567); format: functional, cell-based
[9] = HepG2 cell cytotoxicity, dose response, cytotoxicity control, cherry-picked samples (AID 1159577); format: functional, cell-based
[10] = P. falciparum ATP4 D1247Y mutant growth inhibitors, dose response, NITD609-resistant line, SYBR Green, dry powder (AID 1159571); format: functional, cell-based;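 also: parasites synchronized at ring stage by sorbitol before testing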
Genome polyprotein = Genome polyprotein (dengue virus type 2, UniProt P29990); experiment: Dengue-2 NS5 methyltransferase inhibitors, primary screen, biochemical, confirmation dose response (AID 588689); format: functional
[11] = biological target: T2, Replicative DNA helicase DnaB (Mycobacterium tuberculosis, UniProt P9WMR3); experiment: DnaB intein splicing inhibitors, dose response, biochemical, cell-free fluorescence (AID 449749); format: functional
T2 sequence (P9WMR3 whole entry): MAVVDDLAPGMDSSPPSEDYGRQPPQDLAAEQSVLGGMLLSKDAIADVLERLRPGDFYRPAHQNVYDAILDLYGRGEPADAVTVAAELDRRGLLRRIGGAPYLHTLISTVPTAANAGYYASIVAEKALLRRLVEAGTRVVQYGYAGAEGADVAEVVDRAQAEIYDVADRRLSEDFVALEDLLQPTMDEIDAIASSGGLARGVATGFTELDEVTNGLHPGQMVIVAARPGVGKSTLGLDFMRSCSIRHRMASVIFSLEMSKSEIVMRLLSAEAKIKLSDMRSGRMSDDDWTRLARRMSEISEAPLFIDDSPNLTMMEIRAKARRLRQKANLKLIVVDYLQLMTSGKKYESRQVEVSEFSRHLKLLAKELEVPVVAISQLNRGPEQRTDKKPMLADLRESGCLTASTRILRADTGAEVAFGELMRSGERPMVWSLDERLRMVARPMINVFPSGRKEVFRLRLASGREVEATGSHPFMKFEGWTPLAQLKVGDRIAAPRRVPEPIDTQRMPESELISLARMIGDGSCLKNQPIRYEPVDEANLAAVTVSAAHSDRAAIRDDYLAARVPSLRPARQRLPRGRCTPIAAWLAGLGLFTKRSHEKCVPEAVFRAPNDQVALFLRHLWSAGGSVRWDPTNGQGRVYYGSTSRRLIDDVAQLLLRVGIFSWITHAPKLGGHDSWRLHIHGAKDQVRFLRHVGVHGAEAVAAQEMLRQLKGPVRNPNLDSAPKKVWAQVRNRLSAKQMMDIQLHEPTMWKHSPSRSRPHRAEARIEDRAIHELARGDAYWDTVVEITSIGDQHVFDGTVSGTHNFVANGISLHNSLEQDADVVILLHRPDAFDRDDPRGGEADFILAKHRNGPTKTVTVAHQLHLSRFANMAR

Protein RecA = biological target: T3, Protein RecA (Mycobacterium tuberculosis, UniProt P9WHJ3); experiment: Fluorescence Cell-Free Homogeneous Dose Retest to Identify Inhibitors of RecA-Intein Splicing Activity. [Related pubchem assays (depositor defined):AID2097, AID2223, AID489010, AID492950]; format: functional
T3 sequence (P9WHJ3 whole entry): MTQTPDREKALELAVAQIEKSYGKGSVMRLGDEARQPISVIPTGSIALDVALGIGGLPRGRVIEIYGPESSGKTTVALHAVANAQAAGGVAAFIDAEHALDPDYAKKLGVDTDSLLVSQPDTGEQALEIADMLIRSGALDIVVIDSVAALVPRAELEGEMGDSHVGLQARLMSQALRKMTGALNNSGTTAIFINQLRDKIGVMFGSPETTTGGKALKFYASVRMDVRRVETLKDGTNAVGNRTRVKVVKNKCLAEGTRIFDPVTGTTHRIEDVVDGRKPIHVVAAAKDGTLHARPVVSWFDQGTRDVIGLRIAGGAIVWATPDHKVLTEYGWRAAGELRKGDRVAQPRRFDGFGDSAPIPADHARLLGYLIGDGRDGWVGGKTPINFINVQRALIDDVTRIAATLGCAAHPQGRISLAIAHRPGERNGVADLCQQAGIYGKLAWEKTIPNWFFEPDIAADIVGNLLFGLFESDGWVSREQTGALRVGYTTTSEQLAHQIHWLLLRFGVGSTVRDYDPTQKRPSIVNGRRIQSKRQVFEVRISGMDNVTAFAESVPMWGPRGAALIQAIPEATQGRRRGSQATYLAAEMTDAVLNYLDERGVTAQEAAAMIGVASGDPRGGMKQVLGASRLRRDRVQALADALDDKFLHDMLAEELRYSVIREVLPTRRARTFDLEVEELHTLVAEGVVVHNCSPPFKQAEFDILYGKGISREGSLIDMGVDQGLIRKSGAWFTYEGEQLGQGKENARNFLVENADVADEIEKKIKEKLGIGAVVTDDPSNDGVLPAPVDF

[12] = biological target: T4, Methionyl-tRNA synthetase, putative (Trypanosoma brucei brucei, UniProt Q38C91); format: functional, Trypanosoma brucei brucei strain 927/4 GUTat10.1
T4 sequence (Q38C91 whole entry): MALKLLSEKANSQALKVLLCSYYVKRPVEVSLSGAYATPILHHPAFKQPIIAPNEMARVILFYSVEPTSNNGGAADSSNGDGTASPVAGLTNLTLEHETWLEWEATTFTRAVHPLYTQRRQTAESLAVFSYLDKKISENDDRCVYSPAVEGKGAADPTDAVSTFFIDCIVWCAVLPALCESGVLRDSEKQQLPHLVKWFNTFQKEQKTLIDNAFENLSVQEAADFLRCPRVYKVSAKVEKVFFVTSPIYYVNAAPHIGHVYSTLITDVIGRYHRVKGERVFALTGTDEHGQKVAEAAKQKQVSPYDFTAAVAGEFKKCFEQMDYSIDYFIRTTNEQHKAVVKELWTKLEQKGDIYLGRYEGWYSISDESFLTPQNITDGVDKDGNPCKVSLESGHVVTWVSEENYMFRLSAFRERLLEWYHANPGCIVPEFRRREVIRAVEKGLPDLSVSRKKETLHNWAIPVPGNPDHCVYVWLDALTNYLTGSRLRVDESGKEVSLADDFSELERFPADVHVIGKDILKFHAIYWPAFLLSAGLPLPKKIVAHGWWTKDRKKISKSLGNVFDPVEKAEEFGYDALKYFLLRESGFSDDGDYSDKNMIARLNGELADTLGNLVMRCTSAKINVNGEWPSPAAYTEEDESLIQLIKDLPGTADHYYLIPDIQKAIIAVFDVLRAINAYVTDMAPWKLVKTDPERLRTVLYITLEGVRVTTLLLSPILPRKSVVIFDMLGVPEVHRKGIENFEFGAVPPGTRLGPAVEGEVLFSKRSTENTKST

[13] = Counterscreen for inhibitors of Trypanosoma brucei methionyl tRNA synthetase (MetRS): Luminescence-based cell-based high throughput dose response assay to identify compounds that are cytotoxic to Jurkat human T lymphocyte cells.; format: functional
[14] = Late stage counterscreen for inhibitors of Trypanosoma brucei methionyl tRNA synthetase (MetRS): Luminescence-based cell-based high throughput dose response assay to identify compounds that are cytotoxic to Jurkat human T lymphocyte cells.; format: functional
[15] = biological target: T4, Methionyl-tRNA synthetase, putative; format: functional, Trypanosoma brucei brucei strain 927/4 GUTat10.1; remark: listed apart in the source
[16] = biological target: Bifunctional protein GlmU (Mycobacterium tuberculosis, UniProt P9WMN3); experiment: Inhibitors of Mycobacterial Glucosamine-1-phosphate acetyl transferase (GlmU). Secondary screen.; parameters: species or system Mycobacterium tuberculosis H37Rv
SUMO-activating enzyme [17] = biological target: T5, SUMO-activating enzyme (Homo sapiens, UniProt Q9UBT2); experiment: inhibitors of in vitro SUMOylation cascade, primary screen, biochemical, HTRF, uHTS (AID 2006); format: protein-complex assay
SUMO-activating enzyme [18] = biological target: T5, SUMO-activating enzyme; experiment: SUMOylation inhibitor hit validation, confirmation, SUMOylation inhibitor project, biochemical, AlphaScreen (AID 2018); format: functional
[19] = biological target: Eukaryotic translation initiation factor 4E (Mus musculus, UniProt P63073); experiment: eIF4E–eIF4G protein interaction inhibitors, dose response, biochemical, TR-FRET (AID 855); format: functional;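 also: potency for disrupting eIF4E binding to eIF4GI seen as loss of FRET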
Chain of Eukaryotic translation initiation factor 4E (P63073 whole entry): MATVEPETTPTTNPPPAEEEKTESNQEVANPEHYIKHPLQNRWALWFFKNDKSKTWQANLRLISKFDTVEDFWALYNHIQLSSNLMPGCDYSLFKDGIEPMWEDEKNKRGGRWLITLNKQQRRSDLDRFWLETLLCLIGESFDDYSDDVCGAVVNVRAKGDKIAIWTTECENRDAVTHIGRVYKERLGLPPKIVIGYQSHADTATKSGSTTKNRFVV

Chain of Glyceraldehyde-3-phosphate dehydrogenase (P04406 whole entry): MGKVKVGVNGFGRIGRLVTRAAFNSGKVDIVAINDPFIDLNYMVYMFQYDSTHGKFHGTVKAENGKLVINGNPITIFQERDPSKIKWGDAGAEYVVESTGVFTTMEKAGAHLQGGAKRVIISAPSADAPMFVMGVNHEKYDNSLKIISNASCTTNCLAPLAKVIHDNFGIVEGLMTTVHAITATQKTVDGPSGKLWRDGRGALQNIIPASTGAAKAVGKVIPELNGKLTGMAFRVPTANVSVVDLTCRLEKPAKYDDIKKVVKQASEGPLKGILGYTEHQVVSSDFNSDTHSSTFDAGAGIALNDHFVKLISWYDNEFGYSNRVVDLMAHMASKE
T5 sequence (Q9UBE0 whole entry): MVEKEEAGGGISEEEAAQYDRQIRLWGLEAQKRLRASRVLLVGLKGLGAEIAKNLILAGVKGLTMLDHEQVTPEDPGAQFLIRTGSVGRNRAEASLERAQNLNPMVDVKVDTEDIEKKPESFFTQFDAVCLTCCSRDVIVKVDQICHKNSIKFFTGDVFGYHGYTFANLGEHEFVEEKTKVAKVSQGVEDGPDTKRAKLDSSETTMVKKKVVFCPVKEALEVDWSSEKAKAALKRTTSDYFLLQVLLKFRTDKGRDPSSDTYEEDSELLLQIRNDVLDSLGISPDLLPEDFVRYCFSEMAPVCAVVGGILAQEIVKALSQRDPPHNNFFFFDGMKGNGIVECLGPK
T5 sequence (Q9UBT2 whole entry): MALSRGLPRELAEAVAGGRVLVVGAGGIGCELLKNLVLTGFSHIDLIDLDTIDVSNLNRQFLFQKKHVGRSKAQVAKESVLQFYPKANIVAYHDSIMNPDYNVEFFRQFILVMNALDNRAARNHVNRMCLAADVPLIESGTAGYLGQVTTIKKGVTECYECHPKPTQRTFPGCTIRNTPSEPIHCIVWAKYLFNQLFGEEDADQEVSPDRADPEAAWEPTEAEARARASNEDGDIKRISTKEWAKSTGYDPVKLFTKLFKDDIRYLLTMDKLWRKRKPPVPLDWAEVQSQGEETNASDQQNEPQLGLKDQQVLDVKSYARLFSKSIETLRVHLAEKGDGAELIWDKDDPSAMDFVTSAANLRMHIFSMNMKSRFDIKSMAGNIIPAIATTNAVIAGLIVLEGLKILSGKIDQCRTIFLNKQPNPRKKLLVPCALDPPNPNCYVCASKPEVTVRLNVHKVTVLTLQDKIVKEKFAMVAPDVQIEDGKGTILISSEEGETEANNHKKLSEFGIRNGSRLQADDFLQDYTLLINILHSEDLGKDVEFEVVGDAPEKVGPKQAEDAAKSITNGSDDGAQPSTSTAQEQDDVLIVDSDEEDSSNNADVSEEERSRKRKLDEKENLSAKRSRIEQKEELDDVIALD
Chain of Bifunctional protein GlmU (P9WMN3 whole entry): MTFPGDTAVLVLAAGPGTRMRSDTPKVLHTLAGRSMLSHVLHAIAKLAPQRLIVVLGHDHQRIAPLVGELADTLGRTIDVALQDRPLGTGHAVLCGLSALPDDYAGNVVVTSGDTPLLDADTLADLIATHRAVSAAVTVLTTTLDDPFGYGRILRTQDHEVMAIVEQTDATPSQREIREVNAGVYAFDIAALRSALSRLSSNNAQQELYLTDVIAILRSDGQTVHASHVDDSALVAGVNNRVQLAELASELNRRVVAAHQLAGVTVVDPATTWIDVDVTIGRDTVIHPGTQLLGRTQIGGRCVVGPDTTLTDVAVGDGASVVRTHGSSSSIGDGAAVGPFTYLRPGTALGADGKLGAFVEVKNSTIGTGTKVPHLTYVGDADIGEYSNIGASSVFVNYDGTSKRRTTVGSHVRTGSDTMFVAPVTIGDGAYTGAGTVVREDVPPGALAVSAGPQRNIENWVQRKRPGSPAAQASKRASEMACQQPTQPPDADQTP
Chain of E3 ubiquitin-protein ligase Mdm2 (Q00987 whole entry): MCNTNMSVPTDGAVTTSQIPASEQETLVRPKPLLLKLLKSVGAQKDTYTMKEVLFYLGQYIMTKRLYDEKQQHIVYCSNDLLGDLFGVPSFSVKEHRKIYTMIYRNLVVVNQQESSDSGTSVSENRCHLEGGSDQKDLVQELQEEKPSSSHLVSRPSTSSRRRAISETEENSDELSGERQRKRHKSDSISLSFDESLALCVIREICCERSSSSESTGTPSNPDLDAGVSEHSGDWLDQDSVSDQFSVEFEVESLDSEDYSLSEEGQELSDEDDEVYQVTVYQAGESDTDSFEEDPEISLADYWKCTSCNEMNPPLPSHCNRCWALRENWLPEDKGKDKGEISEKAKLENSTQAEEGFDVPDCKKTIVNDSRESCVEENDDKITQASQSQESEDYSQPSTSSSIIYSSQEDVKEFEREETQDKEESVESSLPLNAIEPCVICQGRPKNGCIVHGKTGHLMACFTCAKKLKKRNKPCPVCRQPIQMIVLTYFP
Chain of Genome polyprotein (P29990 2492-3391 limits assumed): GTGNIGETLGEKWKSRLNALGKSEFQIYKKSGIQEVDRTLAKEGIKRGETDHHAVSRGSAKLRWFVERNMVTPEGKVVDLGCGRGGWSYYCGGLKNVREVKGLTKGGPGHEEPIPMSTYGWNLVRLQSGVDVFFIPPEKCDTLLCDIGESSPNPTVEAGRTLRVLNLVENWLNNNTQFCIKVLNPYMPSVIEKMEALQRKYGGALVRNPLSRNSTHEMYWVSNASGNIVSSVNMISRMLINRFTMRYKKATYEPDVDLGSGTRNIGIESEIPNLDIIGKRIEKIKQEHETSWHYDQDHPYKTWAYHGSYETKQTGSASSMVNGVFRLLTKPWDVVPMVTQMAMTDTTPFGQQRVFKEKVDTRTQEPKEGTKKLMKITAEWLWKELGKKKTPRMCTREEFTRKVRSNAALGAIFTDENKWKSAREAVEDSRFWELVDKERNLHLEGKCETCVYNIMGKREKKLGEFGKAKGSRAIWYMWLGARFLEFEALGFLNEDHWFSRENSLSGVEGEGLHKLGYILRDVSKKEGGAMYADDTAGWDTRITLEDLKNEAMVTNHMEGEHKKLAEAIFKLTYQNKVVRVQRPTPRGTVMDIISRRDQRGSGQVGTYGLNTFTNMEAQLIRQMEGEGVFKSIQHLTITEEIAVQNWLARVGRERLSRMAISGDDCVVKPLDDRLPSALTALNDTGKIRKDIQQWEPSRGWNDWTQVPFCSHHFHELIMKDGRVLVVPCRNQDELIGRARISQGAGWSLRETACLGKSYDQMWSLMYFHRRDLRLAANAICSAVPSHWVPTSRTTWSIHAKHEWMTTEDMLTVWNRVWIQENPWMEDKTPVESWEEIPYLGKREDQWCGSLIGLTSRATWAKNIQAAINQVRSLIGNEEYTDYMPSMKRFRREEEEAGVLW

With `CCOc1ccc(NC(=S)NCCCN2CCOCC2)cc1` the EC50 [1] was 1.95 µM (not active).

With `O=C1C(Cl)=C(N2CCOCC2)C(=O)N1c1ccc(Cl)cc1Cl` the IC50 [2] was > 10 µM (inconclusive), the IC50 (Bcl-2-related protein A1 [3]) was > 100 µM (not active) and the IC50 (Bcl-2-related protein A1 [4]) was > 100 µM (not active).

With `OC[C@@H]1[C@@H](c2ccccc2)C2(CN(Cc3ccc4c(c3)OCO4)C2)N1Cc1ccccc1` the AC50 [5] was 0.634 µM (active), the AC50 [6] was 0.444 µM (active) and the AC50 [7] was 17.9 µM (active). For the same compound, the AC50 [8] was 0.619 µM (active), the AC50 [9] was > 39 µM (inactive) and the AC50 [10] was 0.616 µM (active).

For `COc1ccc2c3c([nH]c2c1)[C@H](CO)N(C(=O)CN(C)C)CC31CCN(CC2CCCCC2)CC1`, the AC50 [5] was 0.0468 µM (active), the AC50 [6] was 0.433 µM (active) and the AC50 [7] was 19.1 µM (active). The AC50 [8] was 0.644 µM (active), the AC50 [9] was > 39 µM (inactive) and the AC50 [10] was 1.12 µM (active).

For `O=C1C(Cl)=C(N2CCOCC2)C(=O)N1c1cccc(Cl)c1`, the IC50 [2] was > 10 µM (inconclusive), the IC50 (Bcl-2-related protein A1 [3]) was 6.37 µM (active) and the IC50 (Bcl-2-related protein A1 [4]) was 8.47 µM (active). The IC50 (Genome polyprotein) was 13.6 µM (active), the AC50 [11] was 4.14 µM (active) and the EC50 (Protein RecA) was 1.46 µM (active).

With `CCCCCCCCCC1NC(C(=O)O)Cc2c1[nH]c1ccccc21` (stereo unspecified) the IC50 [12] was 3.75 µM (active), the IC50 [13] was 83.3 µM (inactive) and the IC50 [14] was > 83.3 µM (inactive). The IC50 [15] was 1.96 µM (active).

For `O=C1C(Cl)=C(Nc2ccccc2O)C(=O)N1CCc1ccccc1`, the IC50 [16] was 85.3 µM (active).

With `O=C(O)CCCCC1CCSS1` (stereo not drawn) [LIPOIC ACID, ALPHA] the IC50 [16] was 3.91 µM (active), the IC50 (SUMO-activating enzyme [17]) was 4.74 µM (active) and the IC50 (SUMO-activating enzyme [18]) was 0.62 µM (active). For the same compound, the IC50 [19] was 16.6 µM (active).
